Target: T1, human Fatty Acid Synthase (Homo sapiens, UniProt P49327)
T1 construct: made in house
Experiment: Human FAS enzyme assay (decrease in NADPH fluorescence)
Assay type: biochemical
Conditions: % inhibition at a concentration of 100 micromolar
Method in brief: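 In-house human FAS (0.4 μg) was preincubated 15 min at RT with compound and NADPH (added at 166.6 μM) in 0.1 M Tris pH 7.5, 1 mM glutathione, 0.05% BSA. Malonyl-/acetyl-CoA (500/150 μM in substrate mix) was then added for 60 min. Readout was NADPH fluorescence loss (ex 340/em 460) over a time-zero read, with IC50 from a sigmoid fit.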

T1 sequence (P49327 whole entry): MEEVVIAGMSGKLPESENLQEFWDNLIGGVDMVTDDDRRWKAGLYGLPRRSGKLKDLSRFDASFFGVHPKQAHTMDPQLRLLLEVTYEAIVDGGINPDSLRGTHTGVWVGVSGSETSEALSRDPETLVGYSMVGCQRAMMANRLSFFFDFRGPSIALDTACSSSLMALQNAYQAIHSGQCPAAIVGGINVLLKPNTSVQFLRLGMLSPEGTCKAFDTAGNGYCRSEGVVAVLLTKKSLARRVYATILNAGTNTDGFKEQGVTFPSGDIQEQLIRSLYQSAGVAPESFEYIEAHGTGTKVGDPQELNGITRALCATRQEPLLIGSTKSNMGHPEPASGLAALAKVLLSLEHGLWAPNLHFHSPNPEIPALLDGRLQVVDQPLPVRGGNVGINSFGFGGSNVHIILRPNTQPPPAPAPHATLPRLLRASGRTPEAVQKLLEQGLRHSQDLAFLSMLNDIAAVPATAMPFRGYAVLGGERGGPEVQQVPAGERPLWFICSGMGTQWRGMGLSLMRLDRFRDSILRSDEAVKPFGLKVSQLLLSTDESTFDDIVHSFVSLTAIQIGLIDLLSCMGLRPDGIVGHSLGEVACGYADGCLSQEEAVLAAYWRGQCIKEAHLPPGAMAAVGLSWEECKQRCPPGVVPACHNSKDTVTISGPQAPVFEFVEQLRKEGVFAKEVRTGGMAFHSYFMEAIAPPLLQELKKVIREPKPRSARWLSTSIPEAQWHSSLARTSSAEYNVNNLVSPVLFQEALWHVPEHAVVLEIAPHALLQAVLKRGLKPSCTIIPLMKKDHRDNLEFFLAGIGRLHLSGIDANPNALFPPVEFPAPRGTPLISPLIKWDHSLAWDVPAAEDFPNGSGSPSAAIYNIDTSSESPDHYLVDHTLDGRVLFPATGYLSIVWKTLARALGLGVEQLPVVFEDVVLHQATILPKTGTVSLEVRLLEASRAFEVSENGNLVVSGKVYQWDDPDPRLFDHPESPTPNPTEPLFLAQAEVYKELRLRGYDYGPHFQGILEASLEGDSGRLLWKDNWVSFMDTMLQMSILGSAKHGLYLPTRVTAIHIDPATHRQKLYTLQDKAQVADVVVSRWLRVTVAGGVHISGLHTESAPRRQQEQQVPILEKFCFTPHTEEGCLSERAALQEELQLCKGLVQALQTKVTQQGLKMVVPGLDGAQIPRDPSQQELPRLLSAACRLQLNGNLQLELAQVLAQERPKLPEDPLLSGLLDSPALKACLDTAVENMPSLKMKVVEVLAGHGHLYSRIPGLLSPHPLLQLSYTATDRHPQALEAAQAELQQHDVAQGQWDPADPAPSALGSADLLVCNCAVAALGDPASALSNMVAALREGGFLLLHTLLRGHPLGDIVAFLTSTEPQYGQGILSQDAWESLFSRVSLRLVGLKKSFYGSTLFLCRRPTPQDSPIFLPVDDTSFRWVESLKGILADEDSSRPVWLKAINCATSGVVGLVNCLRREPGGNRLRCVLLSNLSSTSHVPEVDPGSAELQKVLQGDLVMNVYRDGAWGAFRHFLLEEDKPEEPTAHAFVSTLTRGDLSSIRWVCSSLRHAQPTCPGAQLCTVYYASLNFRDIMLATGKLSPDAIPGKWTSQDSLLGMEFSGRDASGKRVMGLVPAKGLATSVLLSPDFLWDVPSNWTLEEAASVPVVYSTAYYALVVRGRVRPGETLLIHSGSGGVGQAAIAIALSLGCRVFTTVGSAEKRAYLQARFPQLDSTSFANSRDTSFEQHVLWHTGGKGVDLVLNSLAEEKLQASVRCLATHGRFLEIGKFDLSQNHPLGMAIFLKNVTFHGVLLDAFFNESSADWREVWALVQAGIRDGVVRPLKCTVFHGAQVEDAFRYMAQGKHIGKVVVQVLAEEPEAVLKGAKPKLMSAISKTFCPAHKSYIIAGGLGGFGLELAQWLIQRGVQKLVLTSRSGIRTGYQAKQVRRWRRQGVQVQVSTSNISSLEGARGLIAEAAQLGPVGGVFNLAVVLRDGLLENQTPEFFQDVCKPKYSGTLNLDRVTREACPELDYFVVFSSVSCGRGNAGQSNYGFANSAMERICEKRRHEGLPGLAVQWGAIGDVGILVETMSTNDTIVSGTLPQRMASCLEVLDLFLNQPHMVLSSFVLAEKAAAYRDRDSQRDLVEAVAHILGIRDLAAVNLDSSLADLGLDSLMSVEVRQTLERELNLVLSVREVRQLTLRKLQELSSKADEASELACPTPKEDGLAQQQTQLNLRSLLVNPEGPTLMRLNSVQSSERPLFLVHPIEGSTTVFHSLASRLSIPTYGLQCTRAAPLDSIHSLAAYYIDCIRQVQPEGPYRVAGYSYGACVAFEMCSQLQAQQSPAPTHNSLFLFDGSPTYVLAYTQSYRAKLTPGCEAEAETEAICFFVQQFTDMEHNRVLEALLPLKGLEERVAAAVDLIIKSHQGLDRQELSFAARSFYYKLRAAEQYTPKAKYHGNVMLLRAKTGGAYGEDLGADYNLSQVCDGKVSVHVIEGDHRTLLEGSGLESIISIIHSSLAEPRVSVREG

inhibition at 100 µM [%] | Compound
97 | COC(=O)c1cccc(S(=O)(=O)Nc2cc(C(=O)N3CCC(c4ccc(C#N)cc4)CC3)ccc2C)c1 [Example 76, Methyl 3-[[5-[4-(4-cyanophenyl)piperidine-1-carbonyl]-2-methyl-phenyl]sulfamoyl]benzoate]
98 | Cc1ccc(C(=O)N2CCC(c3ccc(C#N)cc3)CC2)cc1NS(=O)(=O)CCNS(C)(=O)=O [Example 77, N-[5-[4-(4-cyanophenyl)piperidine-1-carbonyl]-2-methyl-phenyl]-2-methanesulfonamido-ethanesulfonamide]
95 | CC(=O)NCCS(=O)(=O)Nc1cc(C(=O)N2CCC(c3ccc(C#N)cc3)CC2)ccc1C [Example 78, N-[2-[[5-[4-(4-cyanophenyl)piperidine-1-carbonyl]-2-methyl-phenyl]sulfamoyl]ethyl]acetamide]
95 | Cc1ccc(C(=O)N2CCC(c3ccc(C#N)cc3)CC2)cc1NS(=O)(=O)c1cccc(C(=O)O)c1 [Example 79, 3-[[5-[4-(4-cyanophenyl)piperidine-1-carbonyl]-2-methyl-phenyl]sulfamoyl]benzoic acid]
90 | Cc1ccc(C(=O)N2CCC(c3ccc(C#N)cc3)CC2)cc1NS(=O)(=O)CCNS(=O)(=O)C(C)C [Example 80, N-[2-[[5-[4-(4-cyanophenyl)piperidine-1-carbonyl]-2-methyl-phenyl]sulfamoyl]ethyl]propane-2-sulfonamide]
90 | Cc1ccc(C(=O)N2CCC(c3ccc(C#N)cc3)CC2)cc1NS(=O)(=O)c1cccc(C(N)=O)c1 [Example 81, 3-[[5-[4-(4-cyanophenyl)piperidine-1-carbonyl]-2-methyl-phenyl]sulfamoyl]benzamide]
93 | Cc1ccc(C(=O)N2CCC(c3ccc(C#N)cc3)CC2)cc1NS(=O)(=O)c1cccc(C(=O)N(C)C)c1 [Example 82, 3-[[5-[4-(4-cyanophenyl)piperidine-1-carbonyl]-2-methyl-phenyl]sulfamoyl]-N,N-dimethyl-benzamide]
98 | CNC(=O)c1cccc(S(=O)(=O)Nc2cc(C(=O)N3CCC(c4ccc(C#N)cc4)CC3)ccc2C)c1 [Example 83, 3-[[5-[4-(4-cyanophenyl)piperidine-1-carbonyl]-2-methyl-phenyl]sulfamoyl]-N-methyl-benzamide]
92 | Cc1ccc(C(=O)N2CCC(c3ccc(C#N)cc3)CC2)cc1NS(=O)(=O)c1cccc(C(=O)NCCO)c1 [Example 84, 3-[[5-[4-(4-cyanophenyl)piperidine-1-carbonyl]-2-methyl-phenyl]sulfamoyl]-N-(2-hydroxyethyl)benzamide]
95 | Cc1ccc(C(=O)N2CCC(c3ccc(C#N)cc3)CC2)cc1NS(=O)(=O)c1cccc(C(=O)NC(C)C)c1 [Example 85, 3-[[5-[4-(4-cyanophenyl)piperidine-1-carbonyl]-2-methyl-phenyl]sulfamoyl]-N-propan-2-yl-benzamide]
100 | Cc1ccc(C(=O)N2CCC(c3ccc(C#N)cc3)CC2)cc1NS(=O)(=O)CCNC(=O)c1ccccc1 [Example 86, N-[2-[[5-[4-(4-cyanophenyl)piperidine-1-carbonyl]-2-methyl-phenyl]sulfamoyl]ethyl]benzamide]
82 | COCC(=O)NCCS(=O)(=O)Nc1cc(C(=O)N2CCC(c3ccc(C#N)cc3)CC2)ccc1C [Example 87, N-[2-[[5-[4-(4-cyanophenyl)piperidine-1-carbonyl]-2-methyl-phenyl]sulfamoyl]ethyl]-2-methoxy-acetamide]
89 | Cc1ccc(C(=O)N2CCC(c3ccc(C#N)cc3)CC2)cc1NS(=O)(=O)CC(=O)N1CCOCC1 [Example 88, N-[5-[4-(4-cyanophenyl)piperidine-1-carbonyl]-2-methyl-phenyl]-2-morpholin-4-yl-2-oxo-ethanesulfonamide]
78 | COc1ccc(C(=O)N2CCC(c3ccc(C#N)cc3)CC2)cc1NS(=O)(=O)Cc1ccccc1 [Example 89, N-[5-[4-(4-cyanophenyl)piperidine-1-carbonyl]-2-methoxy-phenyl]-1-phenyl-methanesulfonamide]
79 | Cc1ccc(C(=O)N2CCC(c3ccc(C#N)cc3)CC2)cc1NS(=O)(=O)c1ccc(Cl)nc1 [Example 90, 6-chloro-N-[5-[4-(4-cyanophenyl)piperidine-1-carbonyl]-2-methyl-phenyl]pyridine-3-sulfonamide]
80 | Cc1ccc(C(=O)N2CCC(c3ccc(C#N)cc3)CC2)cc1NS(=O)(=O)CC(=O)N(C)C [Example 91, 2-[[5-[4-(4-cyanophenyl)piperidine-1-carbonyl]-2-methyl-phenyl]sulfamoyl]-N,N-dimethyl-acetamide]
80 | Cc1ccc(C(=O)N2CCC(c3ccc(C#N)cc3)CC2)cc1NS(=O)(=O)CC(=O)NCCO [Example 92, 2-[[5-[4-(4-cyanophenyl)piperidine-1-carbonyl]-2-methyl-phenyl]sulfamoyl]-N-(2-hydroxyethyl)acetamide]

inhibition at 100 µM [%] | Compound
79 | Cc1ccc(C(=O)N2CCC(c3ccc(C#N)cc3)CC2)cc1NS(=O)(=O)c1ccc(N2CCOCC2)nc1 [Example 93, N-[5-[4-(4-cyanophenyl)piperidine-1-carbonyl]-2-methyl-phenyl]-6-morpholin-4-yl-pyridine-3-sulfonamide]
86 | Cc1ccc(C(=O)N2CCC(c3ccc(C#N)cc3)CC2)cc1NS(=O)(=O)c1cn(C)cn1 [Example 94, N-[5-[4-(4-cyanophenyl)piperidine-1-carbonyl]-2-methyl-phenyl]-1-methyl-imidazole-4-sulfonamide]
73 | Cc1ccc(C(=O)N2CCC(c3ccc(C#N)cc3)CC2)cc1NS(=O)(=O)c1cnoc1C [Example 95, N-[5-[4-(4-cyanophenyl)piperidine-1-carbonyl]-2-methyl-phenyl]-5-methyl-1,2-oxazole-4-sulfonamide]
98 | Cc1ccc(C(=O)N2CCC(c3ccc(C#N)cc3)CC2)cc1NS(=O)(=O)c1ccc(N(C)C)nc1 [Example 96, N-[5-[4-(4-cyanophenyl)piperidine-1-carbonyl]-2-methyl-phenyl]-6-dimethylamino-pyridine-3-sulfonamide]
88 | Cc1ccc(C(=O)N2CCC(c3ccc(C#N)cc3)CC2)cc1NS(=O)(=O)c1cccc(C(=O)N2CCOCC2)c1 [Example 97, N-[5-[4-(4-cyanophenyl)piperidine-1-carbonyl]-2-methyl-phenyl]-3-(morpholine-4-carbonyl)benzenesulfonamide]
110 | C=CS(=O)(=O)Nc1cc(C(=O)N2CCC(c3ccc(C#N)cc3)CC2)ccc1C [Example 98, N-[5-[4-(4-cyanophenyl)piperidine-1-carbonyl]-2-methyl-phenyl]ethenesulfonamide]
92 | Cc1ccc(C(=O)N2CCC(c3ccc(C#N)cc3)CC2)cc1NS(=O)(=O)c1ccc(NC(C)C)nc1 [Example 99, N-[5-[4-(4-cyanophenyl)piperidine-1-carbonyl]-2-methyl-phenyl]-6-(propan-2-ylamino)pyridine-3-sulfonamide]
90 | Cc1ccc(C(=O)N2CCC(c3ccc(C#N)cc3)CC2)cc1NS(=O)(=O)c1c(C)nn(C)c1Cl [Example 100, 5-chloro-N-[5-[4-(4-cyanophenyl)piperidine-1-carbonyl]-2-methyl-phenyl]-1,3-dimethyl-pyrazole-4-sulfonamide]
98 | Cc1ccc(C(=O)N2CCC(c3ccc(C#N)cc3)CC2)cc1NS(=O)(=O)c1c(Cl)nc2sccn12 [Example 101, 7-chloro-N-[5-[4-(4-cyanophenyl)piperidine-1-carbonyl]-2-methyl-phenyl]-4-thia-1,6-diazabicyclo[3.3.0]octa-2,5,7-triene-8-sulfonamide]
81 | Cc1ccc(C(=O)N2CCC(c3ccc(C#N)cc3)CC2)cc1NS(=O)(=O)c1ccc(=O)[nH]c1 [Example 102, N-[5-[4-(4-cyanophenyl)piperidine-1-carbonyl]-2-methyl-phenyl]-6-oxo-1H-pyridine-3-sulfonamide]
98 | COCCNc1ccc(S(=O)(=O)Nc2cc(C(=O)N3CCC(c4ccc(C#N)cc4)CC3)ccc2C)cn1 [Example 103, N-[5-[4-(4-cyanophenyl)piperidine-1-carbonyl]-2-methyl-phenyl]-6-(2-methoxyethylamino)pyridine-3-sulfonamide]
76 | C=CS(=O)(=O)Nc1cc(C(=O)N2CCC(c3ccc(C(N)=O)cc3)CC2)ccc1C [Example 104, 4-[1-[3-(ethenylsulfonylamino)-4-methyl-benzoyl]-4-piperidyl]benzamide]
89 | COCCS(=O)(=O)Nc1cc(C(=O)N2CCC(c3ccc(C#N)cc3)CC2)ccc1C [Example 105, N-[5-[4-(4-cyanophenyl)piperidine-1-carbonyl]-2-methyl-phenyl]-2-methoxy-ethanesulfonamide]
95 | Cc1nc(C)c(S(=O)(=O)Nc2cc(C(=O)N3CCC(c4ccc(C#N)cc4)CC3)ccc2C)s1 [Example 106, N-[5-[4-(4-cyanophenyl)piperidine-1-carbonyl]-2-methyl-phenyl]-2,4-dimethyl-1,3-thiazole-5-sulfonamide]
92 | Cc1ccc(C(=O)N2CCC(c3ccc(C#N)cc3)CC2)cc1NS(=O)(=O)c1cccnc1 [Example 107, N-[5-[4-(4-cyanophenyl)piperidine-1-carbonyl]-2-methyl-phenyl]pyridine-3-sulfonamide]
78 | COC(=O)c1ccccc1S(=O)(=O)Nc1cc(C(=O)N2CCC(c3ccc(C#N)cc3)CC2)ccc1C [Example 108, methyl 2-[[5-[4-(4-cyanophenyl)piperidine-1-carbonyl]-2-methyl-phenyl]sulfamoyl]benzoate]
94 | Cc1ccc(C(=O)N2CCC(c3ccc(C#N)cc3)CC2)cc1NS(=O)(=O)CCO [Example 109, N-[5-[4-(4-cyanophenyl)piperidine-1-carbonyl]-2-methyl-phenyl]-2-hydroxy-ethanesulfonamide]

From US20090105305A1, “Therapeutic Agents - 550” (AstraZeneca AB, priority 2006, published 2009)
